Values of other authors, collected in patent US8765195B2, “Methods and compositions for increasing sex steroids and growth hormones” (Quality IP Holdings, Inc., priority 2012, dated 2014).

Columns and labels:
hGH = conditions: for effect on hGH: other amino acids, literature
[1] = subcutaneous injection of 0.06 IU, GH deficient subjects

Compound | effect on hGH (hGH) | further results
N=C(N)NCCC[C@H](N)C(=O)O [arginine] |  | elevation of serum hGH levels (hGH; 30 g, males): 8.6 fold; increase of hGH levels (hGH; intravenous infusion of 183 mg/kg body weight, females): > 20 fold
N[C@@H](Cc1c[nH]cn1)C(=O)O [histidine] | marked increases in hGH | 
NCCCC[C@H](N)C(=O)O [lysine] | marked increases in hGH | 
CSCC[C@H](N)C(=O)O [methionine] | marked increases in hGH | 
NCCC[C@H](N)C(=O)O [ornithine] | marked increases in hGH | 
N[C@@H](Cc1ccccc1)C(=O)O [phenylalanine] | marked increases in hGH | 
HGH: human growth hormone given by subcutaneous injection to GH deficient subjects |  | mean levels of GH reached [1]: 0.4 ng/mL
